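The concentration for 50% growth inhibition is given as GI50. The concentration for full growth arrest is given as TGI.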
Experiments:
Assay in all cases: DTP human tumour cell line panel, 384-well format
[1] = test system: RXF 393 renal
[2] = test system: M14 melanoma
[3] = test system: T-47D breast
[4] = test system: OVCAR-5 ovarian
[5] = test system: CCRF-CEM leukemia
[6] = test system: SF-295 CNS
[7] = test system: HOP-92 NSCLC
[8] = test system: MDA-MB-468 breast
[9] = test system: UO-31 renal
[10] = test system: MALME-3M melanoma
[11] = test system: K-562 leukemia
[12] = test system: IGROV1 ovarian
[13] = test system: SN12C renal

CCCS(=O)(=O)Nc1ccc(F)c(C(=O)c2c[nH]c3ncc(-c4ccc(Cl)cc4)cc23)c1F
GI50 [1]: 2.36 µM | TGI [1]: 6.45 µM | GI50 [2]: 0.0305 µM | TGI [2]: 0.321 µM | GI50 [3]: 6.77 µM | TGI [3]: 16.9 µM | GI50 [4]: 4.41 µM | TGI [4]: 21.3 µM | GI50 [5]: 4.15 µM | TGI [5]: 6.41 µM | GI50 [6]: 3.34 µM | TGI [6]: 5.93 µM | GI50 [7]: 4.98 µM | TGI [7]: 12.1 µM | GI50 [8]: 5.74 µM | TGI [8]: 9.38 µM | GI50 [9]: 4.74 µM | TGI [9]: 16.6 µM | GI50 [10]: 0.0242 µM | TGI [10]: 0.0897 µM | GI50 [11]: 1.66 µM | TGI [11]: 3.43 µM | GI50 [12]: 1.87 µM | TGI [12]: 8.76 µM | GI50 [13]: 8.1 µM | TGI [13]: 22.5 µM
